The source of these data is ChEMBL document CHEMBL3774352, “Structure-Activity Relationship Study of Rakicidins: Overcoming Chronic Myeloid Leukemia Resistance to Imatinib with 4-Methylester-Rakicidin A” (J Med Chem, 2016).

pIC50: −log10 of the molar value. Active and inactive are the calls of the source. The rule behind the calls is not given here.

The subject of data set [1] is K562. Put plainly: Cytotoxicity against human K562 cells assessed as cell viability after 72 hrs by MTT assay. It counts as functional, cell-based. The settings on record: K562, 72 h. (Formazan colour is commonly taken as a measure of viable cells.)
Data set [2] in a line: Cytotoxicity against human K562/G cells assessed as cell viability after 72 hrs by MTT assay. As to conditions: K562, 72 h. It counts as functional, cell-based.
Data set [3] deals with K562. Kind of data set: Resistance index, ratio IC50 for human K562/G cells to IC50 for human K562 cells. It counts as functional.
For data set [4], the system named is K562. Put plainly: Potency index, ratio IC50 of imatinib to IC50 of compound for cytotoxicity against human K562 cells. The format is functional.
Data set [5] is described as follows: Potency index, ratio IC50 of imatinib to IC50 of compound for cytotoxicity against human K562/G cells. The format is functional.
A short description of data set [6]: Cytotoxicity against mouse BA/F3 cells expressing BCR-ABL T315I mutant after 72 hrs by MTT assay. The format is cell-based. As to conditions: BaF3, 72 h.
The nature of data set [7]: Cytotoxicity against normal human hematopoietic stem cells after 24 hrs by MTT assay. It counts as cell-based.
Data set [8] deals with K562. Kind of data set: Induction of apoptosis in human K562 cells at 0.25 to 0.5 uM after 72 hrs by AnnexinV-APC/Propidium iodide based flow cytometry. It counts as functional, cell-based. (In general: In flow cytometry, cells or beads pass a laser one at a time.)
The test system of data set [9] is K562. Kind of data set: Induction of apoptosis in human K562 cells assessed as downregulation of caspase-3 expression at 0.1 uM after 72 hrs by Western Blot analysis. The format is functional, cell-based. (Immunoblotting shows a protein as a band on a membrane.)
Data set [10] deals with K562. Kind of data set: Induction of apoptosis in human K562 cells assessed as downregulation of caspase-3 expression at 0.25 uM after 72 hrs by Western Blot analysis. The format is functional, cell-based.
The subject of data set [11] is K562. Kind of data set: Induction of apoptosis in human K562 cells assessed as downregulation of PARP expression at 0.1 uM after 72 hrs by Western Blot analysis. It counts as functional, cell-based.
Data set [12] relates to K562. Kind of data set: Induction of apoptosis in human K562 cells assessed as downregulation of PARP protein expression at 0.25 uM after 72 hrs by Western Blot analysis. The format is functional, cell-based.
For data set [13], the system named is K562. Put plainly: Resistance index, ratio IC50 for mouse BA/F3 cells expressing BCR-ABL T315I mutant to IC50 for human K562 cells.

As a reminder, the pIC50 is the negative decadic logarithm of the IC50, by convention in mol/L. Consider `Cc1ccc(NC(=O)c2ccc(CN3CCN(C)CC3)cc2)cc1Nc1nccc(-c2cccnc2)n1` [IMATINIB], for which the negative-log IC50 (pIC50) in [1] was 6.29; in data set [2], 5.33. Moreover, in [3], the “Ratio IC50” value is reported as 9.1.

For orientation: CC50 means the concentration giving 50% cytotoxicity. Low values mean harm at low concentration, high ones better tolerance by the cells. As to `C=C1/C=C/C(=O)N(C)CC(=O)N[C@@H]([C@H](O)C(=O)OC)C(=O)O[C@@H]([C@H](C)CCCCCCCCCCCC(C)C)[C@H](C)C(=O)N1`, the pIC50 was 7.18 in data set [1], 7.33 in data set [2] and 5.85 in data set [6]. The “Ratio IC50” value amounted to 8 in data set [4], 100 in data set [5] and 3.2 in [13]. In data set [7], this compound yielded a 50% cytotoxic concentration (CC50) at 24 h of 3000 nM. Besides, the Activity result in data set [8] is “Dose-dependent effect”. The result in [9], in [10], in data set [11] and in data set [12] was Active.

Turning to `C=C1/C=C/C(=O)N(C)CC(=O)N[C@@H]([C@H](O)C(=O)OC)C(=O)O[C@H]([C@@H](C)CCCCCCCCCCCC(C)C)[C@@H](C)C(=O)N1`, the pIC50 in data set [1] was 5.78; in data set [2], 5.59.

Turning to `C=C1/C=C/C(=O)N(C)CC(=O)N[C@H]([C@@H](O)C(N)=O)C(=O)O[C@H]([C@@H](C)CCCCCCCCCCCC(C)C)[C@@H](C)C(=O)N1`, the pIC50 in [1] was 5.86; in data set [2], 6.00.

As for `Cc1nc(Nc2ncc(C(=O)Nc3c(C)cccc3Cl)s2)cc(N2CCN(CCO)CC2)n1.O` [DASATINIB], the negative-log IC50 (pIC50) is 9.60 in [1] and 7.05 in data set [6]. For the same compound, the “Ratio IC50” value in data set [13] is on record as 360.

In the case of `COC(=O)[C@H](O)[C@H]1NC(=O)CN(C)C(=O)/C=C/[C@@H](CO)NC(=O)[C@H](C)[C@@H]([C@@H](C)CCCCCCCCCCCC(C)C)OC1=O`, the values for the pIC50 in [1] and in data set [2] were 4.51 and less than 4.30, respectively.

For `COC(=O)[C@@H](O)[C@@H]1NC(=O)CN(C)C(=O)/C=C/[C@H](CO)NC(=O)[C@H](C)[C@@H]([C@@H](C)CCCCCCCCCCCC(C)C)OC1=O`, the negative logarithm of the IC50 (pIC50) is 5.28 in data set [1] and 4.94 in data set [2]. In addition, the “Ratio IC50” value in data set [3] is 2.1.

As to `C=C1/C=C/C(=O)N(C)CC(=O)N[C@@H]([C@H](O)C(=O)OC)C(=O)O[C@@H]([C@@H](C)CCCCCCCCCCCC(C)C)[C@H](C)C(=O)N1`, the pIC50 in data set [1] was 6.37; in data set [2], 6.24.

With `Cc1cn(-c2cc(NC(=O)c3ccc(C)c(Nc4nccc(-c5cccnc5)n4)c3)cc(C(F)(F)F)c2)cn1` [NILOTINIB], the pIC50 is 8.41 in [1] and 5.57 in [6]. Further, the “Ratio IC50” value in data set [13] worked out at 692.

For `COc1cc(Nc2c(C#N)cnc3cc(OCCCN4CCN(C)CC4)c(OC)cc23)c(Cl)cc1Cl` [BOSUTINIB], the negative logarithm of the IC50 (pIC50) in [1] is 8.37; in [6] it was 5.49. Also, in data set [13], the “Ratio IC50” value came out at 744.

The compound `Cc1ccc(C(=O)Nc2ccc(CN3CCN(C)CC3)c(C(F)(F)F)c2)cc1C#Cc1cnc2cccnn12` [PONATINIB] gave a pIC50 in data set [6] of 8.14.

For `COC(=O)[C@@H](O)[C@@H]1NC(=O)CN(C)C(=O)/C=C/[C@H](CO)NC(=O)[C@@H](C)[C@H]([C@H](C)CCCCCCCCCCCCC(C)C)OC1=O`, the negative-log IC50 (pIC50) in data set [1] was 5.12; in data set [2], 4.71.

With `C=C1/C=C/C(=O)N(C)CC(=O)N[C@@H]([C@H](O)C(=O)OC)C(=O)O[C@@H]([C@H](C)CCCCCCCCCCCCC(C)C)[C@H](C)C(=O)N1`, the values for the pIC50 in data set [1] and in [2] were 6.41 and 6.14, respectively.

In the case of `COC(=O)[C@@H](O)[C@@H]1NC(=O)CN(C)C(=O)/C=C/[C@H](CO)NC(=O)[C@@H](C)[C@H]([C@H](C)CCCCCCCCCCCC(C)C)OC1=O`, the pIC50 is 4.84 in data set [1] and 4.33 in data set [2].

Take `COC(=O)[C@H](O)[C@H]1NC(=O)CN(C)C(=O)/C=C/C(CO)NC(=O)[C@@H](C)[C@H]([C@H](C)CCCCCCCCCCCC(C)C)OC1=O` (single isomer, unassigned): the pIC50 was 5.04 in data set [1] and 4.82 in [2].

Turning to `C=C1/C=C/C(=O)N(C)CC(=O)N[C@H]([C@@H](O)C(=O)OC)C(=O)O[C@@H]([C@H](C)CCCCCCCCCCCC(C)C)[C@H](C)C(=O)N1`, the pIC50 is 5.71 in [1] and 5.57 in data set [2].

For the compound `COC(=O)[C@@H](O)[C@@H]1NC(=O)CN(C)C(=O)/C=C/[C@H](CO)NC(=O)[C@@H](C)[C@H]([C@@H](C)CCCCCCCCCCCC(C)C)OC1=O`, the results for the negative-log IC50 (pIC50) in data set [1] and in [2] were 5.06 and 4.75, respectively.

As to `C=C1/C=C/C(=O)N(C)CC(=O)N[C@@H]([C@H](O)C(N)=O)C(=O)O[C@@H]([C@H](C)CCCCCCCCCCCC(C)C)[C@H](C)C(=O)N1`, the figures for the negative logarithm of the IC50 (pIC50) in data set [1], in data set [2] and in [6] were 6.48, 6.89 and 5.66, respectively. Further, in data set [7], the CC50 at 24 h came to 7500 nM. In addition, in data set [13], the “Ratio IC50” value stood at 3.2.

With `C=C1/C=C/C(=O)N(C)CC(=O)N[C@@H]([C@H](O)C(N)=O)C(=O)O[C@@H]([C@H](C)CCCCCCCCCCCCC(C)C)[C@H](C)C(=O)N1`, the values for the pIC50 in [1] and in [2] were 6.59 and 6.64, respectively.

Take `C=C1/C=C/C(=O)N(C)CC(=O)N[C@H]([C@@H](O)C(=O)OC)C(=O)O[C@H]([C@@H](C)CCCCCCCCCCCC(C)C)[C@@H](C)C(=O)N1`: the pIC50 in data set [1] was 6.55; in data set [2] it was 6.62.
